Results reported in US6893830B1, “Method of screening oxysterol activation of LXRα” (The Board of Regents of the University of Texas System, priority 1996, dated 2005).

Columns and labels:
LXRα protein = target: T1, LXRα protein (Homo sapiens, UniProt Q13133); experiment: Limited protease protection assay (chymotrypsin) of [35S]-labelled Flag-LXRα; type: binding; conditions: increasing concentrations of chymotrypsin, SDS-PAGE and autoradiography
T1 construct: made in house; host or cells: in vitro synthesis (cell-free translation)
T1 sequence (Q13133 1-447): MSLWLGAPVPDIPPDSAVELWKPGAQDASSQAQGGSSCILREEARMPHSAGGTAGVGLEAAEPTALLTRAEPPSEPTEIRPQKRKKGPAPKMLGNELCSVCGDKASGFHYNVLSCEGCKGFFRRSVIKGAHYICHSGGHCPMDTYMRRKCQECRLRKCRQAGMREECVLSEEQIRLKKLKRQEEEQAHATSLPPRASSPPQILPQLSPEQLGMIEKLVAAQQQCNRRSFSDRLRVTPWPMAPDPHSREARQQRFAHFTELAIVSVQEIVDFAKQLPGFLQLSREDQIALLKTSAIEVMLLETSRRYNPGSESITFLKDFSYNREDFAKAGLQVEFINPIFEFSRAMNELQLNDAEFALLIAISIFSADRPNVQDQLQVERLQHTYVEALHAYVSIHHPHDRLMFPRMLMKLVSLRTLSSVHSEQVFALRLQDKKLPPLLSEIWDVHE
Description: FIG. 4, Protease protection of LXRα with 22(R)-hydroxycholesterol. [^35S]-labelled LXRα protein was incubated with (A) ethanol (ETOH) control or (B) 22(R)-hydroxycholesterol, subjected to protease digestion with increasing amounts of chymotrypsin, and analyzed by SDS-PAGE and autoradiography.
In vitro synthesized [^35S]-labelled Flag-LXRα protein was subjected to protease digestion with α-chymotrysin. For these studies, LXRα with a Flag epitope fused to the amino terminus was used.
The unavailability of radiolabelled LXRα activators prevents direct ligand binding analysis. To address the possibility that 22(R)-hydroxycholesterol interacts with LXRα, a limited protease protection assay was performed (FIG. 4). In this experiment, several proteolytic fragments were generated when LXRα protein was incubated with increasing concentrations of the protease, chymotrypsin. […] The presence of a specific ligand-protected ˜30 kDa fragment has also been observed during similar analyses with other nuclear receptors. Thus, these protease protection studies support the finding that 22(R)-hydroxycholesterol interacts with LXRα.

LXRα = target: T2, LXRα (Homo sapiens, UniProt Q13133); experiment: LXRα cotransfection assay with TK-LXREx3-LUC reporter in CV-1 cells; type: cell-based; set-up: expressed in transfected cells; host or cells: CV-1 monkey kidney cells
T2 sequence (Q13133 1-447): T1 sequence (Q13133 1-447)
T2 sequence (P19793 1-462 partner): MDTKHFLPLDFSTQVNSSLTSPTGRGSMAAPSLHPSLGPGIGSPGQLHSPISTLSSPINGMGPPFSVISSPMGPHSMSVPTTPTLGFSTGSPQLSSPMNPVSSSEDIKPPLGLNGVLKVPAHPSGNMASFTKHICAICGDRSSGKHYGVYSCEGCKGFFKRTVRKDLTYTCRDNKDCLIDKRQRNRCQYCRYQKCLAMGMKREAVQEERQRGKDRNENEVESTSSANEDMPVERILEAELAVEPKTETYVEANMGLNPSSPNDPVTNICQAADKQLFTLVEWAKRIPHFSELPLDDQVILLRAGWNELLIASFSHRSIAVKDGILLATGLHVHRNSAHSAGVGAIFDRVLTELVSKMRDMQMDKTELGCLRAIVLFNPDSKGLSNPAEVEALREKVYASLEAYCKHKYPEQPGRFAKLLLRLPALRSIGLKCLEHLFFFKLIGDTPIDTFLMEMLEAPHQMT
Description: FIG. 1 Human LXRα is activated by gonad sterols. (A) Transactivation of LXRα ligand binding domain (LBD) with testis extract. CV-1 cells were cotransfected with a GAL4 responsive luciferase reporter plasmid and an expression plasmid encoding no receptor or a chimeric receptor composed of the GAL4 DNA binding domain fused to the LXRα ligand binding domain (LBD) (GAL4-LXRα)^3. After transfection, cells were treated with ethanol (ETOH) or 1% of the concentrated testis extract. (B) Transactivation of LXRα with follicular fluid meiosis activating substance (FF-MAS). CV-1 cells were cotransfected with an LXRα responsive reporter plasmid and the receptor expression plasmids for LXRα alone or with RXRα. After transfection, cells were treated with ETOH or […] FF-MAS.
FIG. 2 LXRα is activated by a specific subset of oxysterols. (A) Specificity of LXRα activators. Shown is a representative group from 70 compounds evaluated for LXRα activity (10 μM) in cotransfection assays as described in FIG. 1B. […] (B) The the structure-activity relationship of LXRα activators. Data compiled from FIG. 2A and other experiments (not shown) reveal that the position of the hydroxyl on the cholesterol backbone is a determinant of LXRα activity. […] Dose response curves for LXRα activators were generated in CV-1 cell cotransfection assays as described in FIG. 1B.
Organic extraction of breeding bull testis was performed as described^6. Briefly, 12 grams of lyophilized testis was extracted with N-heptane and lipids were concentrated by roto-evaporation. Aliquots representing 1% of this material were assayed. FF-MAS was synthesized as described^18. Transient transfections in CV-1 monkey kidney cells were performed in triplicate in 48-well plates as described^3 with media containing 5% cabosil-treated calf bovine serum.
Transfections were performed in FIG. 1A using 80 ng of TK-MH100x4-LUC reporter and 30 ng of CMX-GAL4-hLXRα expression plasmids per well; and in FIG. 1B using 50 ng of TK-LXREx3-LUC reporter and 25 ng of CMX-hLXRa alone or with 25 ng CMX-hRXRa expression plasmids per well. Candidate ligands were dissolved in ethanol and added 8 hours post-transfection. As an internal standard, 50 ng of CMX-β gal was included in all transfections. All plasmid constructs and determinations of luciferase and β-galactosidase activities have been described^3. To construct CMX-LXRα, the hLXRα cDNA insert was excised from the plasmid pXR2DRV (Willy, et al., 1995, Genes Dev. 9: 1033-1045) with Kpnl and BamHI and was ligated into the expression vector CMX. CMX-βgal was constructed by ligating the β-galactosidase gene into the expression vector CMX. Chimeric Gal4-receptor expression plasmid (CMX-GAL4-LXRα) was constructed by first ligating the GAL4 portion of pSC424 (Sadowski, I. and M. Ptashne, 1989, Nucleic Acids Res. 19: 7539-7530) into the HindIII/SacI sites of pCMX (Umesono, et al., 1991, Cell 65: 1255-1266) to create pCMX-GAL4. This vector contains the CMV promoter fused to the coding sequence for GAL4 (1-147), followed by inframe polylinker cloning sites and translational stop codons. The cDNAs encoding the ligand-binding domain (LBD) of hLXRα (amino acids 166-447) was then ligated into the polylinker to create CMX-GAL4-LXRα.
Reporter plasmids for these studies were constructed by ligating the appropriate oligonucleotides into the HindIII site of the TK-LUC vector to create TK-LXREx3-LUC, TK-MH100x4-LUC (Kang, T., et al., 1993, J. Biol Chem. 268: 9629-9635). The sense strand of the LXRE oligonucleotide used to construct the reporter plasmid TK-LXREx3-LUC was 5′agctt[…]3′ (SEQ. ID. NO. 1). All constructs were verified by sequencing. Data are presented as relative light units (RLUs) and represent the mean of triplicate assays±standard error. […]

CC(C)CC[C@@H](O)[C@@H](C)[C@H]1CC[C@H]2[C@@H]3CC=C4C[C@@H](O)CC[C@]4(C)[C@H]3CC[C@]12C [22(R)-hydroxycholesterol]
ligand-protected 30 kDa chymotrypsin fragment of LXRα (LXRα protein): consistently observed | EC50 (LXRα): 1500 nM
